Reference: publication PMC11571108, “Targeting PfCLK3 with Covalent Inhibitors: A Novel Strategy for Malaria Treatment” (Journal of Medicinal Chemistry, 2024)
Like-named read-outs stand apart in the source and are kept apart here.

Key:
[1] = system: PfCLK3 kinase domain (334–699); assay: Intact protein mass spectrometry, covalent adduct formation; format: binding, Plasmodium falciparum; conditions: for Covalent Adduct Formation (%): pH 7.4, 4 h incubation
From the text: Covalent adduct formation was investigated by intact protein mass spectrometry.

[2] = system: asexual P. falciparum 3D7 parasites; assay: Time of inhibition assays in 3D7 parasites; format: cell-based; conditions: Plasmodium falciparum, read at 72 hpi
Method: Synchronised parasites between 0.4 and 0.6% parasitemia at 4% hematocrit were plated in 384 well plates. To early ring stage plate (0−) rings, serially diluted drugs were added to the parasites in triplicate and incubated as plate 1. At 16 hpi, late ring stage parasites were exposed to the same drug concentrations previously diluted as in plate 1. This was repeated for 24 hpi plates. […] As described previously, the plates were thawed at RT for about an hour before they were SyBr green stained in lysis buffer.

Row | SMILES | covalent adduct formation (observed or not) ([1]; pH 7.4, 4 h) | Covalent Adduct Formation (%) [1] | covalent adduct formation (observed or not) ([1]; pH raised to 9) | EC50 ([2]; dosed at 16 hpi, read-out: pEC50 (3D7) 16 hpi (converted)) | EC50 ([2]; dosed at 24 hpi, read-out: pEC50 (3D7) 24 hpi (converted)) | EC50 ([2]; dosed at early-ring stage (0 h), read-out: pEC50 (3D7) 0-3 hpi (converted))
1 | COc1ccc(CN2CCN(C(=O)/C=C/CN(C)C)CC2)cc1-c1cc2c(-c3ccc(C(=O)O)cc3)ccnc2[nH]1 [Compound 3, 4-{2-[5-({4-[(2E)-4-(dimethylamino)but-2-enoyl]piperazin-1-yl}methyl)-2-methoxyphenyl]-1H-pyrrolo[2,3-b]pyridin-4-yl}benzoic Acid] | no adduct formation | 0% | – | – | – | –
2 | C=CC(=O)N1CCN(Cc2ccc(OC)c(-c3cc4c(-c5ccc(C(=O)O)cc5)ccnc4[nH]3)c2)CC1 [Compound 2, 4-[2-(2-methoxy-5-{[4-(prop-2-enoyl)piperazin-1-yl]methyl}phenyl)-1H-pyrrolo[2,3-b]pyridin-4-yl]benzoic Acid] | no covalent adduct formation was observed | 0% | adduct formation was observed | – | – | –
3 | C[C@@H]1CC[C@H]2[C@@H](C)C(=O)O[C@@H]3O[C@@]4(C)CC[C@@H]1[C@]32OO4 [Artemisinin] | – | – | – | 112 nM | 95.5 nM | 13.5 nM
